Experimental data published in patent US12325697B2 (Nimbus Clio, Inc., priority 2021, dated 2025).

What was measured:
[1] = target: Recombinant human c-Cbl (aa 47-435) (Homo sapiens (Human), UniProt P22681); assay: c-Cbl Biochemical Assay (TR-FRET)
Outline: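 TR-FRET binding of UBE2D2-Ub-Bodipy (100 nM) to biotinylated c-Cbl (aa 47-435, 6 nM) via Streptavidin-Tb, measured after c-Cbl activation by Src-Zap70 with 0.5 mM ATP (60-90 min RT, 30 min compound preincubation). Ten-point half-log dilutions, 1% DMSO; IC50 by 4-parameter fit of normalized inhibition.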

[2] = target: Recombinant human Cbl-b (aa 36-427) (Homo sapiens (Human), UniProt Q13191); assay: Cbl-b Biochemical Assay (TR-FRET); conditions: read-out: TR-FRET hCbl-b IC50
Outline: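 IC50 from 4-parameter fit of % inhibition (DMSO max, reference-inhibitor min), duplicate ten-point series. Compound preincubated with 6 nM Cbl-b, then Src-Zap70 (1-2.5 nM)/0.5 mM ATP reaction 60 min RT; EDTA quench with labelled UBE2D2-Ub and streptavidin-terbium, 60 min, HTRF at 520 nm.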

Recombinant human c-Cbl (aa 47-435), sequence (P22681 47-435): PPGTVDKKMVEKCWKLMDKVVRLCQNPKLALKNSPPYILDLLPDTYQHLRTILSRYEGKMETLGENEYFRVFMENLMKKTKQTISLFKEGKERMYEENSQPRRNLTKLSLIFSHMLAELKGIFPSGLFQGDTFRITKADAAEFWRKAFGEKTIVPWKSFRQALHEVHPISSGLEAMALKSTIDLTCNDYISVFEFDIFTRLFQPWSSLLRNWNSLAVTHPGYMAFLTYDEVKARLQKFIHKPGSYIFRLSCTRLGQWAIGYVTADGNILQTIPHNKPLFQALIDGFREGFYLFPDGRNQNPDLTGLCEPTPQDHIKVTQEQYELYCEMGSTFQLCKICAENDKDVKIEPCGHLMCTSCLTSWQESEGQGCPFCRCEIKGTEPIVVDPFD
Recombinant human Cbl-b (aa 36-427), sequence (Q13191 36-427): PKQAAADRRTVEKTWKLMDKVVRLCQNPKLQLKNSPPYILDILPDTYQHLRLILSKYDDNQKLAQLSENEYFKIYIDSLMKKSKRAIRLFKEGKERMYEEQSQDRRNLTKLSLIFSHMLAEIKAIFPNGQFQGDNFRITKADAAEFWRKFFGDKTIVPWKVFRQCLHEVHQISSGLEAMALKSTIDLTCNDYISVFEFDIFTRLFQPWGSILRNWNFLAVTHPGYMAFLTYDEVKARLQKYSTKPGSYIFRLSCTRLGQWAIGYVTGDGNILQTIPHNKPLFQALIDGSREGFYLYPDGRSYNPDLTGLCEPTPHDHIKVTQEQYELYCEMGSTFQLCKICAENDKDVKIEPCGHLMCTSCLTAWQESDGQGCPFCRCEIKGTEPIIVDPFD

SMILES: Cn1cnnc1-c1cc(C#N)ccc1-c1cc(C2CC2)nc(N2Cc3c(cc(CNCC4COC4)c(F)c3F)C2=O)c1 [ANE-1, 4-[2-Cyclopropyl-6-(4,5-difluoro-6-{[(oxetan-3-ylmethyl)amino]methyl}-1-oxo-3H-isoindol-2-yl)pyridin-4-yl]-3-(4-methyl-1,2,4-triazol-3-yl)benzonitrile]
- IC50 [1]: ≤ 200 nM
- IC50 [2]: ≤ 200 nM

SMILES: Cn1cnnc1-c1cc(C#N)ccc1-c1cc(C2CC2)nc(N2Cc3ccc(CNC4CCC4)cc3C2=O)c1 [ANI-2, 4-(2-{6-[(Cyclobutylamino)methyl]-1-oxo-3H-isoindol-2-yl}-6-cyclopropylpyridin-4-yl)-3-(4-methyl-1,2,4-triazol-3-yl)benzonitrile]
- IC50 [1]: ≤ 200 nM
- IC50 [2]: ≤ 200 nM

SMILES: C[C@@H](NCc1ccc2c(c1)C(=O)N(c1cc(-c3ccc(C#N)cc3-c3nncn3C)cc(C3CC3)n1)C2)C1COC1 [ANJ-2, (R)-4-(2-Cyclopropyl-6-(6-(((1-(oxetan-3-yl)ethyl)amino)methyl)-1-oxoisoindolin-2-yl)pyridin-4-yl)-3-(4-methyl-4H-1,2,4-triazol-3-yl)benzonitrile]
- IC50 [1]: ≤ 200 nM
- IC50 [2]: ≤ 200 nM

SMILES: C[C@H](NCc1ccc2c(c1)C(=O)N(c1cc(-c3ccc(C#N)cc3-c3nncn3C)cc(C3CC3)n1)C2)C1COC1 [ANK-2, (S)-4-(2-Cyclopropyl-6-(6-(((1-(oxetan-3-yl)ethyl)amino)methyl)-1-oxoisoindolin-2-yl)pyridin-4-yl)-3-(4-methyl-4H-1,2,4-triazol-3-yl)benzonitrile]
- IC50 [1]: ≤ 200 nM
- IC50 [2]: ≤ 200 nM

SMILES: Cn1cnnc1-c1cc(C#N)ccc1-c1cc(C2CC2)nc(N2Cc3ccc(CNCC4(F)COC4)cc3C2=O)c1 [ANL-2, 4-{2-Cyclopropyl-6-[6-({[(3-fluorooxetan-3-yl)methyl]amino}methyl)-1-oxo-3H-isoindol-2-yl]pyridin-4-yl}-3-(4-methyl-1,2,4-triazol-3-yl)benzonitrile]
- IC50 [1]: ≤ 200 nM
- IC50 [2]: ≤ 200 nM

SMILES: Cn1cnnc1-c1cc(C#N)ccc1-c1cc(C2CC2)nc(N2Cc3ccc(CNC(C)(C)C4COC4)cc3C2=O)c1 [ANM-2, 4-{2-Cyclopropyl-6-[6-({[2-(oxetan-3-yl)propan-2-yl]amino}methyl)-1-oxo-3H-isoindol-2-yl]pyridin-4-yl}-3-(4-methyl-1,2,4-triazol-3-yl)benzonitrile]
- IC50 [1]: ≤ 200 nM
- IC50 [2]: ≤ 200 nM

SMILES: C[C@@H](NCC1COC1)c1ccc2c(c1)C(=O)N(c1cc(-c3ccc(C#N)cc3-c3nncn3C)cc(C3CC3)n1)C2 [ANN-2, (R)-4-(2-Cyclopropyl-6-(6-(1-((oxetan-3-ylmethyl)amino)ethyl)-1-oxoisoindolin-2-yl)pyridin-4-yl)-3-(4-methyl-4H-1,2,4-triazol-3-yl)benzonitrile]
- IC50 [1]: ≤ 200 nM
- IC50 [2]: ≤ 200 nM

SMILES: C[C@H](NCC1COC1)c1ccc2c(c1)C(=O)N(c1cc(-c3ccc(C#N)cc3-c3nncn3C)cc(C3CC3)n1)C2 [ANO-1, (S)-4-(2-Cyclopropyl-6-(6-(1-((oxetan-3-ylmethyl)amino)ethyl)-1-oxoisoindolin-2-yl)pyridin-4-yl)-3-(4-methyl-4H-1,2,4-triazol-3-yl)benzonitrile]
- IC50 [1]: ≤ 200 nM
- IC50 [2]: ≤ 200 nM

SMILES: Cn1cnnc1-c1cc(C#N)ccc1-c1cc(C2CC2)nc(N2Cc3ccc(CN[C@H]4CCOC4)cc3C2=O)c1 [ANQ-2, 4-[2-Cyclopropyl-6-(1-oxo-6-{[(3S)-oxolan-3-ylamino]methyl}-3H-isoindol-2-yl)pyridin-4-yl]-3-(4-methyl-1,2,4-triazol-3-yl)benzonitrile]
- IC50 [1]: ≤ 200 nM
- IC50 [2]: ≤ 200 nM

SMILES: Cn1cnnc1-c1cc(F)ccc1-c1cc(C2CC2)nc(N2Cc3cc(Cl)c(CN[C@@H]4CCC[C@@H]4O)cc3C2=O)c1 [ANR-2, 5-Chloro-2-{6-cyclopropyl-4-[4-fluoro-2-(4-methyl-1,2,4-triazol-3-yl)phenyl]pyridin-2-yl}-6-({[(1R,2S)-2-hydroxycyclopentyl]amino}methyl)-3H-isoindol-1-one]
- IC50 [1]: ≤ 200 nM
- IC50 [2]: ≤ 200 nM

SMILES: COCCN(C)Cc1cc(F)c2c(c1)C(=O)N(c1cc(-c3ccc(C#N)cc3-c3nncn3C)cc(C3CC3)n1)C2 [ANT-1, 4-[2-Cyclopropyl-6-(4-fluoro-6-{[(2-methoxyethyl)(methyl)amino]methyl}-1-oxo-3H-isoindol-2-yl)pyridin-4-yl]-3-(4-methyl-1,2,4-triazol-3-yl)benzonitrile]
- IC50 [1]: ≤ 200 nM
- IC50 [2]: ≤ 200 nM

SMILES: Cn1cnnc1-c1cc(C#N)ccc1-c1cc(C2CC2)nc(N2Cc3c(F)cc(CN4C[C@]5(C)C[C@H]4CO5)cc3C2=O)c1 [ANU-3, 4-(2-cyclopropyl-6-(4-fluoro-6-(((1S,4S)-1-methyl-2-oxa-5-azabicyclo[2.2.1]heptan-5-yl)methyl)-1-oxoisoindolin-2-yl)pyridin-4-yl)-3-(4-methyl-4H-1,2,4-triazol-3-yl)benzonitrile]
- IC50 [1]: ≤ 200 nM
- IC50 [2]: ≤ 200 nM

SMILES: Cn1cnnc1-c1cc(C#N)ccc1-c1cc(C2CC2)nc(N2Cc3c(F)cc(CN4C[C@@]5(C)C[C@@H]4CO5)cc3C2=O)c1 [ANV-1, 4-(2-Cyclopropyl-6-(4-fluoro-6-(((1R,4R)-1-methyl-2-oxa-5-azabicyclo[2.2.1]heptan-5-yl)methyl)-1-oxoisoindolin-2-yl)pyridin-4-yl)-3-(4-methyl-4H-1,2,4-triazol-3-yl)benzonitrile]
- IC50 [1]: ≤ 200 nM
- IC50 [2]: ≤ 200 nM

SMILES: COCC(NCc1cc(F)c2c(c1)C(=O)N(c1cc(-c3ccc(C#N)cc3-c3nncn3C)cc(C3CC3)n1)C2)C(F)(F)F (centres unmarked) [ANW-3, 4-[2-Cyclopropyl-6-(4-fluoro-1-oxo-6-{[(1,1,1-trifluoro-3-methoxypropan-2-yl)amino]methyl}-3H-isoindol-2-yl)pyridin-4-yl]-3-(4-methyl-1,2,4-triazol-3-yl)benzonitrile]
- IC50 [1]: ≤ 200 nM
- IC50 [2]: ≤ 200 nM

SMILES: CN(Cc1ccc2c(c1)C(=O)N(c1cc(-c3ccc(C#N)cc3-c3nncn3C)cc(C3CC3)n1)C2)CC1COC1 [ANX-2, 4-[2-Cyclopropyl-6-(6-{[methyl(oxetan-3-ylmethyl)amino]methyl}-1-oxo-3H-isoindol-2-yl)pyridin-4-yl]-3-(4-methyl-1,2,4-triazol-3-yl)benzonitrile]
- IC50 [1]: ≤ 200 nM
- IC50 [2]: ≤ 200 nM

SMILES: Cn1cnnc1-c1cc(C#N)ccc1-c1cc(C2CC2)nc(N2Cc3ccc(CNC[C@@H]4CCOC4)cc3C2=O)c1 [ANY-2, 4-{2-Cyclopropyl-6-[1-oxo-6-({[(3S)-oxolan-3-ylmethyl]amino}methyl)-3H-isoindol-2-yl]pyridin-4-yl}-3-(4-methyl-1,2,4-triazol-3-yl)benzonitrile]
- IC50 [1]: ≤ 200 nM
- IC50 [2]: ≤ 200 nM

SMILES: Cn1cnnc1-c1cc(C#N)ccc1-c1cc(C2CC2)nc(N2Cc3ccc(CNC[C@H]4CCOC4)cc3C2=O)c1 [ANZ-2, 4-{2-Cyclopropyl-6-[1-oxo-6-({[(3R)-oxolan-3-ylmethyl]amino}methyl)-3H-isoindol-2-yl]pyridin-4-yl}-3-(4-methyl-1,2,4-triazol-3-yl)benzonitrile]
- IC50 [1]: ≤ 200 nM
- IC50 [2]: ≤ 200 nM

SMILES: CN(Cc1ccc2c(c1)C(=O)N(c1cc(-c3ccc(C#N)cc3-c3nncn3C)cc(C3CC3)n1)C2)C1CCC1 [AOA-1]
- IC50 [1]: ≤ 200 nM
- IC50 [2]: ≤ 200 nM

SMILES: C[C@H](NC1COC1)c1ccc2c(c1)C(=O)N(c1cc(-c3ccc(C#N)cc3-c3nncn3C)cc(C3CC3)n1)C2 [AOB-2, (S)-4-(2-Cyclopropyl-6-(6-(1-(oxetan-3-ylamino)ethyl)-1-oxoisoindolin-2-yl)pyridin-4-yl)-3-(4-methyl-4H-1,2,4-triazol-3-yl)benzonitrile]
- IC50 [1]: ≤ 200 nM
- IC50 [2]: ≤ 200 nM
